Data reported in PubChem BioAssay (NCI).
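Cells were grown in 96-well plates and exposed to each compound for 48 hours at five concentrations; endpoints were interpolated linearly between bracketing concentrations, or set to the highest concentration if not reached. Abbreviation: GI50, concentration required for 50% inhibition of growth. TGI is the concentration that stops growth completely.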

Assays:
Assay in all cases: DTP human tumour cell line panel, 48 h
HT29 colon = test system: HT29 colon
MOLT-4 leukemia = test system: MOLT-4 leukemia
CCRF-CEM leukemia = test system: CCRF-CEM leukemia
KM12 colon = test system: KM12 colon
SNB-75 CNS = test system: SNB-75 CNS
PC-3 prostate = test system: PC-3 prostate
UACC-257 melanoma = test system: UACC-257 melanoma
HCT-116 colon = test system: HCT-116 colon
IGROV1 ovarian = test system: IGROV1 ovarian
786-0 renal = test system: 786-0 renal
LOX IMVI melanoma = test system: LOX IMVI melanoma
EKVX NSCLC = test system: EKVX NSCLC
HS 578T breast = test system: HS 578T breast
MALME-3M melanoma = test system: MALME-3M melanoma
SN12C renal = test system: SN12C renal
SNB-19 CNS = test system: SNB-19 CNS
SR leukemia = test system: SR leukemia
TK-10 renal = test system: TK-10 renal
COLO 205 colon = test system: COLO 205 colon
SK-MEL-28 melanoma = test system: SK-MEL-28 melanoma
HOP-62 NSCLC = test system: HOP-62 NSCLC
OVCAR-8 ovarian = test system: OVCAR-8 ovarian
DU-145 prostate = test system: DU-145 prostate
RXF 393 renal = test system: RXF 393 renal
A498 renal = test system: A498 renal
SK-MEL-2 melanoma = test system: SK-MEL-2 melanoma
SF-268 CNS = test system: SF-268 CNS
BT-549 breast = test system: BT-549 breast
MCF7 breast = test system: MCF7 breast
HCT-15 colon = test system: HCT-15 colon
HCC-2998 colon = test system: HCC-2998 colon
SK-MEL-5 melanoma = test system: SK-MEL-5 melanoma
UO-31 renal = test system: UO-31 renal
OVCAR-4 ovarian = test system: OVCAR-4 ovarian
A549 NSCLC = test system: A549 NSCLC
CAKI-1 renal = test system: CAKI-1 renal
HL-60(TB) leukemia = test system: HL-60(TB) leukemia
MDA-MB-231 breast = test system: MDA-MB-231 breast
NCI-H23 lung = test system: NCI-H23 lung
OVCAR-5 ovarian = test system: OVCAR-5 ovarian
MDA-MB-435 = test system: MDA-MB-435
NCI-H226 lung = test system: NCI-H226 lung
SW-620 colon = test system: SW-620 colon
SK-OV-3 ovarian = test system: SK-OV-3 ovarian
ACHN renal = test system: ACHN renal
RPMI-8226 leukemia = test system: RPMI-8226 leukemia
K-562 leukemia = test system: K-562 leukemia
SF-295 CNS = test system: SF-295 CNS
NCI/ADR-RES ovarian = test system: NCI/ADR-RES ovarian
T-47D breast = test system: T-47D breast
U251 CNS = test system: U251 CNS
M14 melanoma = test system: M14 melanoma
NCI-H460 lung = test system: NCI-H460 lung
UACC-62 melanoma = test system: UACC-62 melanoma
SF-539 CNS = test system: SF-539 CNS
NCI-H522 lung = test system: NCI-H522 lung
HOP-92 NSCLC = test system: HOP-92 NSCLC
OVCAR-3 ovarian = test system: OVCAR-3 ovarian

## CC[C@H](CO)Nc1nc(NCc2ccccc2)n2ncc(C(C)C)c2n1
HT29 colon
  GI50: 2 µM
  TGI: 15.5 µM
MOLT-4 leukemia
  GI50: 2.18 µM
  TGI: 9.46 µM
CCRF-CEM leukemia
  GI50: 0.648 µM
  TGI: 9.26 µM
KM12 colon
  GI50: 0.711 µM
  TGI: 2.79 µM
SNB-75 CNS
  GI50: 1.31 µM
  TGI: 3.33 µM
PC-3 prostate
  GI50: 0.927 µM
  TGI: 12.3 µM
UACC-257 melanoma
  GI50: 3.56 µM
  TGI: 15 µM
HCT-116 colon
  GI50: 0.51 µM
  TGI: 15 µM
IGROV1 ovarian
  GI50: 0.782 µM
  TGI: > 100 µM
786-0 renal
  GI50: 1.98 µM
  TGI: 10.7 µM
LOX IMVI melanoma
  GI50: 1.07 µM
  TGI: 10.3 µM
EKVX NSCLC
  GI50: 2.41 µM
  TGI: 9.13 µM
HS 578T breast
  GI50: 1.59 µM
  TGI: 6.16 µM
MALME-3M melanoma
  GI50: 2.6 µM
  TGI: 6.99 µM
SN12C renal
  GI50: 2.41 µM
  TGI: 14.4 µM
SNB-19 CNS
  GI50: 1.44 µM
  TGI: 12.3 µM
SR leukemia
  GI50: 0.249 µM
  TGI: 1.59 µM
TK-10 renal
  GI50: 2 µM
  TGI: 10.9 µM
COLO 205 colon
  GI50: 1.12 µM
  TGI: 3.15 µM
SK-MEL-28 melanoma
  GI50: 1.16 µM
  TGI: 3.82 µM
HOP-62 NSCLC
  GI50: 2.1 µM
  TGI: 8.72 µM
OVCAR-8 ovarian
  GI50: 2.15 µM
  TGI: 54.8 µM
DU-145 prostate
  GI50: 1.3 µM
  TGI: 9.52 µM
RXF 393 renal
  GI50: 0.25 µM
  TGI: 0.792 µM
A498 renal
  GI50: 1.25 µM
  TGI: 3.44 µM
SK-MEL-2 melanoma
  GI50: 1.47 µM
  TGI: 6 µM
SF-268 CNS
  GI50: 1.82 µM
  TGI: 7.2 µM
BT-549 breast
  GI50: 1.56 µM
  TGI: 5.29 µM
MCF7 breast
  GI50: 0.592 µM
  TGI: 7.99 µM
HCT-15 colon
  GI50: 0.872 µM
  TGI: 10.5 µM
HCC-2998 colon
  GI50: 1.2 µM
  TGI: 3.27 µM
SK-MEL-5 melanoma
  GI50: 1.78 µM
  TGI: 4.96 µM
UO-31 renal
  GI50: 1.59 µM
  TGI: > 100 µM
OVCAR-4 ovarian
  GI50: 2.58 µM
  TGI: 37 µM
A549 NSCLC
  GI50: 1.58 µM
  TGI: 41.4 µM
CAKI-1 renal
  GI50: 1.02 µM
  TGI: 8.35 µM
HL-60(TB) leukemia
  GI50: 0.409 µM
  TGI: 2.68 µM
MDA-MB-231 breast
  GI50: 2.37 µM
  TGI: 9.47 µM
NCI-H23 lung
  GI50: 1.71 µM
  TGI: 7.79 µM
OVCAR-5 ovarian
  GI50: 1.85 µM
  TGI: 15 µM
MDA-MB-435
  GI50: 2.06 µM
  TGI: 10.1 µM
NCI-H226 lung
  GI50: 1.84 µM
  TGI: 10.1 µM
SW-620 colon
  GI50: 1.38 µM
  TGI: 5.56 µM
SK-OV-3 ovarian
  GI50: 5.55 µM
  TGI: 40.2 µM
ACHN renal
  GI50: 0.808 µM
  TGI: 10.7 µM
RPMI-8226 leukemia
  GI50: 2.23 µM
  TGI: 6.93 µM
K-562 leukemia
  GI50: 2.44 µM
  TGI: 7.38 µM
SF-295 CNS
  GI50: 0.812 µM
  TGI: 4.74 µM
NCI/ADR-RES ovarian
  GI50: 2.08 µM
  TGI: 15.7 µM
T-47D breast
  GI50: 2.48 µM
  TGI: 13.3 µM
U251 CNS
  GI50: 1.4 µM
  TGI: 10.5 µM
M14 melanoma
  GI50: 2 µM
  TGI: 7.93 µM
NCI-H460 lung
  GI50: 1.05 µM
  TGI: 10.9 µM
UACC-62 melanoma
  GI50: 1.37 µM
  TGI: 5.5 µM
SF-539 CNS
  GI50: 1.22 µM
  TGI: 3.62 µM
NCI-H522 lung
  GI50: 1.46 µM
  TGI: 8.98 µM
HOP-92 NSCLC
  GI50: 1.67 µM
  TGI: 7.1 µM
OVCAR-3 ovarian
  GI50: 1.15 µM
  TGI: 4.6 µM
